Consider 22 molecules from patent US20180170903A1, “PYRIDIN-3-YL ACETIC ACID DERIVATIVES AS INHIBITORS OF HUMAN IMMUNODEFICIENCY VIRUS REPLICATION” (ViiV HEALTHCARE UK (NO.5) LIMITED, priority 2015, published 2018).

The test system of the assay is NL-RLuc virus (recombinant HIV NL4-3 proviral clone with Renilla Luciferase) in MT-2 cells. The experiment in a line: Inhibition of HIV Replication (NL-RLuc luciferase reporter virus, MT-2 cells). The format is cell-based. Particulars: MT2, 120 h. From the text:
Inhibition of HIV Replication:
A recombinant NL-RLuc proviral clone was constructed in which a section of the nef gene from NL4-3 was replaced with the Renilla Luciferase gene. This virus is fully infectious and can undergo multiple cycles of replication in cell culture. In addition, the luciferous reporter provides a simple and easy method for quantitating the extent of virus growth and consequently, the antiviral activity of test compounds. The plasmid pNLRLuc contains the proviral NL-Rluc DNA cloned into pUC 18 at the PvuII site. The NL-RLuc virus was prepared by transfection of 293T cells with the plasmid pNLRLuc. Transfections were performed using the LipofectAMINE PLUS kit from Invitrogen (Carlsbad, Calif.) according to the manufacturer and the virus generated was titered in MT-2 cells. For susceptibility analyses, the titrated virus was used to infect MT-2 cells in the presence of compound, and after 5 days of incubation, cells were processed and quantitated for virus growth by the amount of expressed luciferase. Assay media was RPMI 1640 supplemented with 10% heat inactivated fetal bovine serum (FBS), 100 units/ml penicillin G/100 units/ml streptomycin, 10 mM HEPES buffer pH 7.55 and 2 mM L-glutamine. The results from at least 2 experiments were used to calculate the EC50 values. Luciferase was quantitated using the Dual Luciferase kit from Promega (Madison, Wis.). Susceptibility of viruses to compounds was determined by incubation in the presence of serial dilutions of the compound. The 50% effective concentration (EC50) was calculated by using the exponential form of the median effect equation where (Fa)=1/[1+(ED50/drug conc.)^m](Johnson V A, Byington R T. Infectivity Assay. In Techniques in HIV Research. ed. Aldovini A, Walker B D. 71-76. New York: Stockton Press. 1990). Activity equal to A refers to a compound having an EC50≤100 nM, while B and C denote compounds having an EC50 between 100 nM and 1 uM (B) or >1 uM (C).

The structures appear in SMILES notation. Like-named read-outs stand apart in the source and are kept apart here. Some results are limits rather than exact numbers.

For the molecule `Cc1cc(CNCc2ccc(-c3c(C)nc(C)c([C@H](OC(C)(C)C)C(=O)O)c3N3CCC(C)(C)CC3)cc2)ccc1F` [Example 1, (S)-2-(tert-Butoxy)-2-(4-(4,4-dimethylpiperidin-1-yl)-5-(4-(((4-fluoro-3-methylbenzyl)amino)methyl)phenyl)-2,6-dimethylpyridin-3-yl)acetic acid], the EC50 was less than 0.1 µM (read-out: Activity) and 0.013 µM (read-out: EC50 μM).
For `Cc1nc(C)c([C@H](OC(C)(C)C)C(=O)O)c(N2CCC(C)(C)CC2)c1-c1ccc(CN2CCOCC2)cc1` [Example 2, (S)-2-(tert-Butoxy)-2-(4-(4,4-dimethylpiperidin-1-yl)-2,6-dimethyl-5-(4-(morpholinomethyl)phenyl)pyridin-3-yl)acetic acid] the same measures were 0.1 to 1 µM and 0.113 µM.
With `Cc1nc(C)c([C@H](OC(C)(C)C)C(=O)O)c(N2CCC(C)(C)CC2)c1-c1ccc(CN(Cc2ccc(F)cc2)CC2CCCO2)cc1` (stereo partly drawn) [Example 3, (2S)-2-(tert-Butoxy)-2-(4-(4,4-dimethylpiperidin-1-yl)-5-(4-(((4-fluorobenzyl) ((tetrahydrofuran-2-yl)methyl)amino)methyl)phenyl)-2,6-dimethylpyridin-3-yl)acetic acid], the EC50 (read-out: Activity) was less than 0.1 µM.
Still for that read-out and setting: for `Cc1nc(C)c([C@H](OC(C)(C)C)C(=O)O)c(N2CCC(C)(C)CC2)c1-c1ccc(CNCc2ccc(F)cc2)cc1` [Example 4, (S)-2-(tert-butoxy)-2-(4-(4,4-dimethylpiperidin-1-yl)-5-(4-(((4-fluorobenzyl)amino)methyl)phenyl)-2,6-dimethylpyridin-3-yl)acetic acid] the value was less than 0.1 µM; for `Cc1nc(C)c([C@H](OC(C)(C)C)C(=O)O)c(N2CCC(C)(C)CC2)c1-c1ccc(CN(C)CCc2ccc(F)cc2)cc1` [Example 5, (S)-2-(tert-butoxy)-2-(4-(4,4-dimethylpiperidin-1-yl)-5-(4-(((4-fluorophenethyl)(methyl)amino)methyl)phenyl)-2,6-dimethylpyridin-3-yl)acetic acid], less than 0.1 µM.
On to `Cc1nc(C)c([C@H](OC(C)(C)C)C(=O)O)c(N2CCC(C)(C)CC2)c1-c1ccc(CNCCC(C)(C)C)cc1` [Example 6, (S)-2-(tert-butoxy)-2-(5-(4-(((3,3-dimethylbutyl)amino)methyl)phenyl)-4-(4,4-dimethylpiperidin-1-yl)-2,6-dimethylpyridin-3-yl)acetic acid], for which, where the note is “read-out: Activity”, the EC50 is 0.1 to 1 µM.
Still for that read-out and setting: with `Cc1nc(C)c([C@H](OC(C)(C)C)C(=O)O)c(N2CCC(C)(C)CC2)c1-c1ccc(CN(C)Cc2ccc(F)cc2)cc1` [Example 7, (S)-2-(tert-butoxy)-2-(4-(4,4-dimethylpiperidin-1-yl)-5-(4-(((4-fluorobenzyl)(methyl)amino)methyl)phenyl)-2,6-dimethylpyridin-3-yl)acetic acid] the figure was less than 0.1 µM.
With `COc1ccc(CCNCc2ccc(-c3c(C)nc(C)c([C@H](OC(C)(C)C)C(=O)O)c3N3CCC(C)(C)CC3)cc2)cc1` [Example 8, (S)-2-(tert-butoxy)-2-(4-(4,4-dimethylpiperidin-1-yl)-5-(4-(((4-methoxyphenethyl)amino)methyl)phenyl)-2,6-dimethylpyridin-3-yl)acetic acid], the EC50 reads like this: (read-out: Activity) less than 0.1 µM; (read-out: EC50 μM) 0.09 µM.
With `COc1ccccc1CCNCc1ccc(-c2c(C)nc(C)c([C@H](OC(C)(C)C)C(=O)O)c2N2CCC(C)(C)CC2)cc1` [Example 9, (S)-2-(tert-butoxy)-2-(4-(4,4-dimethylpiperidin-1-yl)-5-(4-(((2-methoxyphenethyl)amino)methyl)phenyl)-2,6-dimethylpyridin-3-yl)acetic acid], the EC50 (read-out: Activity) was less than 0.1 µM.
Still for that read-out and setting: for `CON(Cc1ccc(F)cc1)Cc1ccc(-c2c(C)nc(C)c([C@H](OC(C)(C)C)C(=O)O)c2N2CCC(C)(C)CC2)cc1` [Example 10, (S)-2-(tert-butoxy)-2-(4-(4,4-dimethylpiperidin-1-yl)-5-(4-(((4-fluorobenzyl)(methoxy)amino)methyl)phenyl)-2,6-dimethylpyridin-3-yl)acetic acid] the value was less than 0.1 µM.
Turning to `Cc1nc(C)c([C@H](OC(C)(C)C)C(=O)O)c(N2CCC(C)(C)CC2)c1-c1ccc(CNCCc2ccc(F)cc2)cc1` [Example 11, (S)-2-(tert-butoxy)-2-(4-(4,4-dimethylpiperidin-1-yl)-5-(4-(((4-fluorophenethyl)amino)methyl)phenyl)-2,6-dimethylpyridin-3-yl)acetic acid], for the setting “read-out: Activity”, the EC50 is less than 0.1 µM.
Same read-out and setting: for `Cc1nc(C)c([C@H](OC(C)(C)C)C(=O)O)c(N2CCC(C)(C)CC2)c1-c1ccc(CNCc2ccc(Cl)c(Cl)c2)cc1` [Example 12, (S)-2-(tert-butoxy)-2-(5-(4-(((3,4-dichlorobenzyl)amino)methyl)phenyl)-4-(4,4-dimethylpiperidin-1-yl)-2,6-dimethylpyridin-3-yl)acetic acid] the value was less than 0.1 µM.
For the molecule `Cc1nc(C)c([C@H](OC(C)(C)C)C(=O)O)c(N2CCC(C)(C)CC2)c1-c1ccc(CNCCC2CCCCC2)cc1` [Example 13, (S)-2-(tert-butoxy)-2-(5-(4-(((2-cyclohexylethyl)amino)methyl)phenyl)-4-(4,4-dimethylpiperidin-1-yl)-2,6-dimethylpyridin-3-yl)acetic acid], where the note is “read-out: Activity”, the EC50 was 0.1 to 1 µM.
Same read-out and setting: with `Cc1nc(C)c([C@H](OC(C)(C)C)C(=O)O)c(N2CCC(C)(C)CC2)c1-c1ccc(CNCc2ccccc2)cc1` [Example 14, (S)-2-(5-(4-((benzylamino)methyl)phenyl)-4-(4,4-dimethylpiperidin-1-yl)-2,6-dimethylpyridin-3-yl)-2-(tert-butoxy)acetic acid] the figure was less than 0.1 µM; with `Cc1nc(C)c([C@H](OC(C)(C)C)C(=O)O)c(N2CCC(C)(C)CC2)c1-c1ccc(CNCc2ccc(Cl)cc2)cc1` [Example 15, (S)-2-(tert-butoxy)-2-(5-(4-(((4-chlorobenzyl)amino)methyl)phenyl)-4-(4,4-dimethylpiperidin-1-yl)-2,6-dimethylpyridin-3-yl)acetic acid], less than 0.1 µM; with `Cc1ccc(CNCc2ccc(-c3c(C)nc(C)c([C@H](OC(C)(C)C)C(=O)O)c3N3CCC(C)(C)CC3)cc2)cc1` [Example 16, (S)-2-(tert-butoxy)-2-(4-(4,4-dimethylpiperidin-1-yl)-2,6-dimethyl-5-(4-(((4-methylbenzyl)amino)methyl)phenyl)pyridin-3-yl)acetic acid], less than 0.1 µM.
For `Cc1nc(C)c([C@H](OC(C)(C)C)C(=O)O)c(N2CCC(C)(C)CC2)c1-c1ccc(CNCC2CCCCC2)cc1` [Example 17, (S)-2-(tert-butoxy)-2-(5-(4-(((cyclohexylmethyl)amino)methyl)phenyl)-4-(4,4-dimethylpiperidin-1-yl)-2,6-dimethylpyridin-3-yl)acetic acid], under “read-out: Activity”, the EC50 was 0.1 to 1 µM.
In the case of `COC(=O)c1ccc(CNCc2ccc(-c3c(C)nc(C)c([C@H](OC(C)(C)C)C(=O)O)c3N3CCC(C)(C)CC3)cc2)cc1` [Example 18, (S)-2-(tert-butoxy)-2-(4-(4,4-dimethylpiperidin-1-yl)-5-(4-(((4-(methoxycarbonyl)benzyl)amino)methyl)phenyl)-2,6-dimethylpyridin-3-yl)acetic acid], the EC50 (read-out: Activity) is 0.1 to 1 µM and the EC50 (read-out: EC50 μM) was found to be 0.228 µM.
Consider `Cc1nc(C)c([C@H](OC(C)(C)C)C(=O)O)c(N2CCC(C)(C)CC2)c1-c1ccc(CNCc2ccc(C(=O)O)cc2)cc1` [Example 19, (S)-4-(((4-(5-(tert-butoxy(carboxy)methyl)-4-(4,4-dimethylpiperidin-1-yl)-2,6-dimethylpyridin-3-yl)benzyl)amino)methyl)benzoic acid], for which the EC50 by setting is: (read-out: Activity) more than 1 µM; (read-out: EC50 μM) 2.07 µM.
In the case of `Cc1nc(C)c([C@H](OC(C)(C)C)C(=O)O)c(N2CCC(C)(C)CC2)c1-c1ccc(CN(Cc2ccc(F)cc2)C(=O)C2CCCC2)cc1` [Example 20, (S)-2-(tert-butoxy)-2-(4-(4,4-dimethylpiperidin-1-yl)-5-(4-((N-(4-fluorobenzyl)cyclopentanecarboxamido)methyl)phenyl)-2,6-dimethylpyridin-3-yl)acetic acid], the EC50 (read-out: Activity) was less than 0.1 µM.
As for `Cc1nc(C)c([C@H](OC(C)(C)C)C(=O)O)c(N2CCC(C)(C)CC2)c1-c1ccc(CN(Cc2ccc(F)cc2)C(=O)c2ccccc2)cc1` [Example 21, (S)-2-(tert-butoxy)-2-(4-(4,4-dimethylpiperidin-1-yl)-5-(4-((N-(4-fluorobenzyl)benamido)methyl)phenyl)-2,6-dimethylpyridin-3-yl)acetic acid], the EC50 (read-out: Activity) is less than 0.1 µM.
With `CCC(=O)N(Cc1ccc(F)cc1)Cc1ccc(-c2c(C)nc(C)c([C@H](OC(C)(C)C)C(=O)O)c2N2CCC(C)(C)CC2)cc1` [Example 22, (S)-2-(tert-butoxy)-2-(4-(4,4-dimethylpiperidin-1-yl)-5-(4-((N-(4-fluorobenzyl)propionamido)methyl)phenyl)-2,6-dimethylpyridin-3-yl)acetic acid], the EC50 (read-out: Activity) is less than 0.1 µM.
